Assay results: patent US10945992B1, “Dosage forms of rofecoxib and related methods” (Tremeau Pharmaceuticals, Inc., priority 2019, dated 2021)
Like-named read-outs stand apart in the source and are kept apart here.

Assay: TRM-201-PK-102 single-dose four-period crossover pharmacokinetic study, fasted healthy subjects
Format: in vivo, human
Conditions: for geometric mean ratio AUC0-∞ to historical data for the 25 mg VIOXX product / geometric mean ratio Cmax to historical data for the 25 mg VIOXX product: sensitivity analysis; for AUC(0-inf) / Cmax: human, plasma, oral
Protocol: A Single-Dose, Open-Label, Phase 1, Four-Period Crossover Pharmacokinetic Study of TRM-201 (Rofecoxib) 12.5 mg, 17.5 mg, 20 mg and 25 mg Administered to Healthy Subjects in a Fasting State, with Comparison to Historical Pharmacokinetic Parameters of Previously Marketed Rofecoxib (“TRM-201-PK-102” or “102 PK Study”)
This was a single-center, open-label four-period crossover PK study of TRM-201. The study included 24 subjects who received TRM-201 as a single dose of 12.5 mg, 17.5 mg, 20 mg and 25 mg to assess the PK of TRM-201 in healthy volunteers under fasted conditions. Subjects were randomized to one of four treatment sequences. The PK data from the current study along with the data from the TRM-201-PK-101 study (Example 4) was used to compare to historical pharmacokinetic parameters of previously marketed rofecoxib, all in a fasted state.
In each of the four dosing periods, subjects fasted overnight for at least 10 hours before study drug dosing. While fasting, subjects had nothing to eat and only water to drink. Water was permitted as desired, except for the period between 1 hour before and 1 hour after study drug dosing (excepting as permitted for dosing). After the 2-hour PK blood sample, subjects were allowed one 250-mL cup of clear apple juice. After the 4-hour PK blood sample, subjects were served a light lunch. Following the light lunch, subjects received standardized meals according to the clinic's standard procedures that were scheduled at consistent times and at least 15 minutes before or 15 minutes after PK sampling time points. Blood was withdrawn for PK analysis at predefined time points. For each dosing period the last time point was 120 hours after dosing with study drug (Day 6). After the 120 hour PK sample, the EOP procedures was completed, subjects remained in-clinic for the in-between dose period day (Days 7, 14, and 21) and began the next dosing period starting with an overnight fast for at least 10 hours on Day −1 of the subsequent dosing period. Pharmacokinetic and safety endpoints were evaluated.
The study drug, TRM-201, was an immediate-release tablet that contained 12.5 mg rofecoxib, 17.5 mg rofecoxib, 20 mg rofecoxib or 25 mg rofecoxib. The 7.25-mm diameter tablets were off-white, round, and uncoated with no markings. TRM-201 tablets were for oral administration.
For each sample, approximately 3 mL of blood were drawn. The samples were obtained by a straight stick or via an in-dwelling intravenous (IV) catheter in a forearm vein. Additional details for the collection, processing, storage, and shipping of PK samples were provided in the study manual.
Pharmacokinetic samples will be analyzed using a validated assay for rofecoxib in human plasma. Assay results and validation details will be provided in a separate bioanalytical report. The following PK parameters for rofecoxib will be calculated as primary endpoints using standard noncompartmental methods: AUC0-∞ and Cmax. Secondary endpoints include Tmax, and t1/2. Additional PK parameters (e.g., CL/F, and Vd/F) will also be calculated using standard noncompartmental methods.
Individual plasma concentrations for rofecoxib and PK sampling time deviation data will be presented in a data listing. Plasma concentration data will be summarized by time point using the following descriptive statistics: number of subjects, arithmetic mean, SD, coefficient of variation (CV), geometric mean, natural-log-scale SD, geometric CV, median, minimum, and maximum. Individual plasma concentration versus actual time profiles were presented on both linear and semilogarithmic scales. Additionally, arithmetic mean concentration versus scheduled time profiles were presented on linear scales and geometric means on semilogarithmic scales.
The PK parameters of rofecoxib were analyzed based on the actual sampling times. […]

CS(=O)(=O)c1ccc(C2=C(c3ccccc3)C(=O)OC2)cc1 [TRM-201, 4-[4-(methylsulfonyl)phenyl]-3-phenyl-2(5H)-furanone]
arithmetic mean plasma concentration (17.5 mg, 15 minutes): 2.42 ng/mL | arithmetic mean plasma concentration (17.5 mg, 45 minutes): 93 ng/mL | geometric mean ratio AUC0-∞ to historical data for the 25 mg VIOXX product (TRM-201 17.5 mg): 0.819 | geometric mean ratio Cmax to historical data for the 25 mg VIOXX product (TRM-201 17.5 mg): 1.03 | geometric mean ratio AUC0-∞ to historical data for the 25 mg VIOXX product (TRM-201 20 mg): 0.934 | geometric mean ratio Cmax to historical data for the 25 mg VIOXX product (TRM-201 20 mg): 1.19 | AUC(0-inf) (female, 12.5 mg, 102 study, females, read-out: arithmetic mean AUC0-∞): 2240 ng·h/mL | Cmax (female, 12.5 mg, 102 study, females, read-out: arithmetic mean Cmax): 168 ng/mL | AUC(0-inf) (female, 12.5 mg, 102 study, females, read-out: geometric mean AUC0-∞): 2170 ng·h/mL | Cmax (female, 12.5 mg, 102 study, females, read-out: geometric mean Cmax): 160 ng/mL | AUC(0-inf) (female, 17.5 mg, 102 study, females, read-out: arithmetic mean AUC0-∞): 3650 ng·h/mL | Cmax (female, 17.5 mg, 102 study, females, read-out: arithmetic mean Cmax): 266 ng/mL | AUC(0-inf) (female, 17.5 mg, 102 study, females, read-out: geometric mean AUC0-∞): 3490 ng·h/mL | Cmax (female, 17.5 mg, 102 study, females, read-out: geometric mean Cmax): 251 ng/mL | AUC(0-inf) (female, 20 mg, 102 study, females, read-out: arithmetic mean AUC0-∞): 4270 ng·h/mL | Cmax (female, 20 mg, 102 study, females, read-out: arithmetic mean Cmax): 314 ng/mL | AUC(0-inf) (female, 20 mg, 102 study, females, read-out: geometric mean AUC0-∞): 4160 ng·h/mL | Cmax (female, 20 mg, 102 study, females, read-out: geometric mean Cmax): 293 ng/mL | AUC(0-inf) (female, 25 mg, 102 study, females, read-out: arithmetic mean AUC0-∞): 5090 ng·h/mL | Cmax (female, 25 mg, 102 study, females, read-out: arithmetic mean Cmax): 388 ng/mL | AUC(0-inf) (12.5 mg, 102 study only, read-out: arithmetic mean AUC0-∞): 2010 ng·h/mL | Cmax (12.5 mg, 102 study only, read-out: arithmetic mean Cmax): 151 ng/mL | AUC(0-inf) (12.5 mg, 102 study only, read-out: geometric mean AUC0-∞): 1880 ng·h/mL | Cmax (12.5 mg, 102 study only, read-out: geometric mean Cmax): 144 ng/mL | AUC(0-inf) (12.5 mg, 102 study, 18-40 years, read-out: arithmetic mean AUC0-∞): 1680 ng·h/mL | Cmax (12.5 mg, 102 study, 18-40 years, read-out: arithmetic mean Cmax): 164 ng/mL | AUC(0-inf) (12.5 mg, 102 study, 18-40 years, read-out: geometric mean AUC0-∞): 1570 ng·h/mL | Cmax (12.5 mg, 102 study, 18-40 years, read-out: geometric mean Cmax): 156 ng/mL | AUC(0-inf) (12.5 mg, 102 study, 41-52 years, read-out: arithmetic mean AUC0-∞): 2090 ng·h/mL | Cmax (12.5 mg, 102 study, 41-52 years, read-out: arithmetic mean Cmax): 140 ng/mL | AUC(0-inf) (12.5 mg, 102 study, 41-52 years, read-out: geometric mean AUC0-∞): 1880 ng·h/mL | Cmax (12.5 mg, 102 study, 41-52 years, read-out: geometric mean Cmax): 133 ng/mL | AUC(0-inf) (12.5 mg, 102 study, 53-60 years, read-out: arithmetic mean AUC0-∞): 2270 ng·h/mL | Cmax (12.5 mg, 102 study, 53-60 years, read-out: arithmetic mean Cmax): 150 ng/mL | AUC(0-inf) (12.5 mg, 102 study, 53-60 years, read-out: geometric mean AUC0-∞): 2240 ng·h/mL | Cmax (12.5 mg, 102 study, 53-60 years, read-out: geometric mean Cmax): 143 ng/mL | AUC(0-inf) (12.5 mg, 102 study, Black or African-American subjects, read-out: arithmetic mean AUC0-∞): 1660 ng·h/mL | Cmax (12.5 mg, 102 study, Black or African-American subjects, read-out: arithmetic mean Cmax): 143 ng/mL | AUC(0-inf) (12.5 mg, 102 study, Black or African-American subjects, read-out: geometric mean AUC0-∞): 1590 ng·h/mL | Cmax (12.5 mg, 102 study, Black or African-American subjects, read-out: geometric mean Cmax): 142 ng/mL | AUC(0-inf) (12.5 mg, 102 study, Hispanic or Latino subjects, read-out: arithmetic mean AUC0-∞): 2210 ng·h/mL | Cmax (12.5 mg, 102 study, Hispanic or Latino subjects, read-out: arithmetic mean Cmax): 157 ng/mL | AUC(0-inf) (12.5 mg, 102 study, Hispanic or Latino subjects, read-out: geometric mean AUC0-∞): 2090 ng·h/mL | Cmax (12.5 mg, 102 study, Hispanic or Latino subjects, read-out: geometric mean Cmax): 146 ng/mL | AUC(0-inf) (12.5 mg, 102 study, White subjects, read-out: arithmetic mean AUC0-∞): 2110 ng·h/mL | Cmax (12.5 mg, 102 study, White subjects, read-out: arithmetic mean Cmax): 153 ng/mL | AUC(0-inf) (12.5 mg, 102 study, White subjects, read-out: geometric mean AUC0-∞): 1960 ng·h/mL | Cmax (12.5 mg, 102 study, White subjects, read-out: geometric mean Cmax): 144 ng/mL | AUC(0-inf) (12.5 mg, 102 study, body weight 47-70 kg, read-out: arithmetic mean AUC0-∞): 1850 ng·h/mL | Cmax (12.5 mg, 102 study, body weight 47-70 kg, read-out: arithmetic mean Cmax): 175 ng/mL | AUC(0-inf) (12.5 mg, 102 study, body weight 47-70 kg, read-out: geometric mean AUC0-∞): 1690 ng·h/mL | Cmax (12.5 mg, 102 study, body weight 47-70 kg, read-out: geometric mean Cmax): 165 ng/mL | AUC(0-inf) (12.5 mg, 102 study, body weight 70.1-77 kg, read-out: arithmetic mean AUC0-∞): 2500 ng·h/mL | Cmax (12.5 mg, 102 study, body weight 70.1-77 kg, read-out: arithmetic mean Cmax): 155 ng/mL | AUC(0-inf) (12.5 mg, 102 study, body weight 70.1-77 kg, read-out: geometric mean AUC0-∞): 2420 ng·h/mL | Cmax (12.5 mg, 102 study, body weight 70.1-77 kg, read-out: geometric mean Cmax): 147 ng/mL | AUC(0-inf) (12.5 mg, 102 study, body weight 77.1-90 kg, read-out: arithmetic mean AUC0-∞): 1790 ng·h/mL
